Experimental data: article PMC12441834, “Highly Potent and Subtype-Selective Sperm-Specific Potassium Channel SLO3 Inhibitors Display High Tissue Exposure in the Murine Female Reproductive Tract” (ACS Pharmacology & Translational Science, 2025)
Where “and” joins values, the source holds several entries; their conditions need not be identical. Equal entries are not always repeated.

Columns and labels:
CYP2C9 = CYP2C9 (Homo sapiens, UniProt P11712); experiment: CYP450 inhibition; assay type: in vitro ADME; conditions: read-out: CYP450 Inhibition, 2C9
CYP2C9, sequence (P11712 whole entry, species assumed): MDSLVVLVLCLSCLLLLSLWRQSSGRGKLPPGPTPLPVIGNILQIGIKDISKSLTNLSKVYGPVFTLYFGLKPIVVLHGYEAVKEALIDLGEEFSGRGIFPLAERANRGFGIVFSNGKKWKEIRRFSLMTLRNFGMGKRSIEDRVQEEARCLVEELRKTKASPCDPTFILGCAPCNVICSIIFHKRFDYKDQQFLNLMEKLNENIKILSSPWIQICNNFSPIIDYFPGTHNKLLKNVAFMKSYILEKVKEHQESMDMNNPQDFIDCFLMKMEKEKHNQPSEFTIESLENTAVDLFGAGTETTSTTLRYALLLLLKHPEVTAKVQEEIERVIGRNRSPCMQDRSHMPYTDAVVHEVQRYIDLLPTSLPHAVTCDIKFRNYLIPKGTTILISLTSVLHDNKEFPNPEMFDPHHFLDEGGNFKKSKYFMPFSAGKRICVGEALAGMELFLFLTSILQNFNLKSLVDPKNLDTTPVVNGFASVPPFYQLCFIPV

Adenosine A3 = Adenosine A3 (Homo sapiens, UniProt P0DMS8); experiment: LeadProfilingScreen radioligand binding
Adenosine A3, sequence (P0DMS8 whole entry): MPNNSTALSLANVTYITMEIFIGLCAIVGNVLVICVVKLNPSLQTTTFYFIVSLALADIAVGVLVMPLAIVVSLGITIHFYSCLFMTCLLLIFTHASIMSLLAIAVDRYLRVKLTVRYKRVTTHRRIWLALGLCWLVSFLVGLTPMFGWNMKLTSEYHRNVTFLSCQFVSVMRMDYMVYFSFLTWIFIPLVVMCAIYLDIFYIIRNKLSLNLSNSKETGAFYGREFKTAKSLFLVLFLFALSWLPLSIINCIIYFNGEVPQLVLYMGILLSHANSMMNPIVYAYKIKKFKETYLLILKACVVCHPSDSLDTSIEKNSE

[1] = Multispecies hepatocyte MetID; assay type: in vitro ADME, mouse; conditions: 4 h incubation with hepatocytes, 10 μM
Adenosine A1 = Adenosine A1 (Homo sapiens, UniProt P30542); experiment: LeadProfilingScreen radioligand binding
Adenosine A1, sequence (P30542 whole entry): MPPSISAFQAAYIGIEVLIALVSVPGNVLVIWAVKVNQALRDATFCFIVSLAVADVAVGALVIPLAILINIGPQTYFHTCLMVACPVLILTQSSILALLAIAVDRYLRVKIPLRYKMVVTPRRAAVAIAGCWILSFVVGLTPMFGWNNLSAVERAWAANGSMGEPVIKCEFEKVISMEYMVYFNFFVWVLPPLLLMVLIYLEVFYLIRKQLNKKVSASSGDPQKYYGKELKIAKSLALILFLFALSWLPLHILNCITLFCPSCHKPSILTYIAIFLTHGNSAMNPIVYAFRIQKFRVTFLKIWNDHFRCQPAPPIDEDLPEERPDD

[2] = Multispecies hepatocyte MetID; assay type: in vitro ADME, dog; conditions: 4 h incubation with hepatocytes, 10 μM
Description: (§1) Metabolites were identified after preincubating each compound at a 10 μM final concentration with 2.5 × 10^5 hepatocytes from human, dog, cynomolgus monkey, and rat in 200 μL of Optiincubate buffer (BioIVT, Westbury, NY). […] After centrifugation, 60 μL of the supernatant was transferred to 60 μL of water for LC-MS analysis. Samples were analyzed using a Thermo Scientific Vanquish UHPLC consisting of a VH-P10-A pump, a VH-A10-A sampler module, a VH-C10-A column compartment, and the VF-D11-A UV detector coupled to an Orbitrap Fusion Lumos instrument with UVPD. A binary solvent system consisting of (A) water with 0.1% formic acid and (B) acetonitrile with 0.1% formic acid was used with an Accucore Vanquish C18+, 2.1 mm × 100 mm, 1.5 μm, UHPLC column maintained at 40 °C. The data generated by data-dependent acquisition via normal acquisition and AcquireX were processed manually with Thermo Scientific FreeStyle and assisted by Compound Discoverer 3.3.1.111 to aid in the structural assignments.

[3] = Multispecies hepatocyte MetID; assay type: in vitro ADME, cynomolgus monkey; conditions: 4 h incubation with hepatocytes, 10 μM
Description: as §1

[4] = molecular target: Serotonin (5-Hydroxytryptamine) 5-HT1A (Homo sapiens, UniProt P08908); experiment: LeadProfilingScreen radioligand binding
Serotonin (5-Hydroxytryptamine) 5-HT1A, sequence (P08908 whole entry): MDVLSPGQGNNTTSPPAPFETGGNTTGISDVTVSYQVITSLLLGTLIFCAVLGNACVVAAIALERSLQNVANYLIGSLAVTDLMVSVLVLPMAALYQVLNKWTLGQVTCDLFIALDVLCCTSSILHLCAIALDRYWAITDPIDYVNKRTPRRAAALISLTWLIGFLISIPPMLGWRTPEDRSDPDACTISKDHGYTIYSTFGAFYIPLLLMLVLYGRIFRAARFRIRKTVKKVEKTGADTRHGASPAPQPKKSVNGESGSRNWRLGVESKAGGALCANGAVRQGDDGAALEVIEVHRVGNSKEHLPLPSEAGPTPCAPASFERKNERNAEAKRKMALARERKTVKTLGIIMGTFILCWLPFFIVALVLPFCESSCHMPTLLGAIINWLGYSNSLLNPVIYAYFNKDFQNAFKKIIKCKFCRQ

hERG potassium channel = hERG potassium channel (Homo sapiens, UniProt Q12809); experiment: LeadProfilingScreen radioligand binding; conditions: probe [3H]Dofetilide
hERG potassium channel, sequence (Q12809 whole entry): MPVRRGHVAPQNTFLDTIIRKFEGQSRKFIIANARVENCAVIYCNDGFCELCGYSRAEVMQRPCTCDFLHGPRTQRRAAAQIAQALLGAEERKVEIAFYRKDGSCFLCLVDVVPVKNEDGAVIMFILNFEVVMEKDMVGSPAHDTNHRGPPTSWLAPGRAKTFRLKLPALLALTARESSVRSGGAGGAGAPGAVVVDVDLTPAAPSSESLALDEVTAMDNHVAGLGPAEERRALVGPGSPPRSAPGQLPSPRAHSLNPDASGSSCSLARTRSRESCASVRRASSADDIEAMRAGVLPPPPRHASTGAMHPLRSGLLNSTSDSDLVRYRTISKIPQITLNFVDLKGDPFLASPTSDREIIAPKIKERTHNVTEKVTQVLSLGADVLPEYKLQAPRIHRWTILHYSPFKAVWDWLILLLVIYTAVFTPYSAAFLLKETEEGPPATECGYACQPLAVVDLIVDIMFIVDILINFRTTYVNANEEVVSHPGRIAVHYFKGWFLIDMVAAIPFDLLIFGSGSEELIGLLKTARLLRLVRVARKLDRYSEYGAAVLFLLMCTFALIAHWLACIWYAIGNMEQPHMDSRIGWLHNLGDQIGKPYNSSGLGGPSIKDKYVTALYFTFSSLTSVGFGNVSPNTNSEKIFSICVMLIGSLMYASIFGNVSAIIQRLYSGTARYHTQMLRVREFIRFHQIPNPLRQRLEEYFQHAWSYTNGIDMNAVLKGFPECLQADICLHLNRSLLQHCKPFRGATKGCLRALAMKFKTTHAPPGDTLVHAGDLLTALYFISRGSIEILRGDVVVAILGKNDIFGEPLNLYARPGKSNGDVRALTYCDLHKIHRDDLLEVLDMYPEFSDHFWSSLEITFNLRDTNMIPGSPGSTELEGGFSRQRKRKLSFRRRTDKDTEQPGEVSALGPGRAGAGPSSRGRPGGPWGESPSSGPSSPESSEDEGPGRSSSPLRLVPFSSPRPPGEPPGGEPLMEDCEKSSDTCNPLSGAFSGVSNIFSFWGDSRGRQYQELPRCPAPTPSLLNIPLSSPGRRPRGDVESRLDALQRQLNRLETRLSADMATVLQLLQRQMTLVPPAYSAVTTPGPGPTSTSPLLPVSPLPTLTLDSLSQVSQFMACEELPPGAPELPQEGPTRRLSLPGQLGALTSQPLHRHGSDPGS

Structure (SMILES) | IC50 (CYP2C9) | inhibition at 10 µM (Adenosine A3) | % of Parent Related Material, Mouse [1] | inhibition at 10 µM (Adenosine A1) | % of Parent Related Material, Dog [2] | % of Parent Related Material, Cyno [3] | inhibition at 10 µM [4] | inhibition at 10 µM (hERG potassium channel)
Cc1cc(Cl)cc2sc(O[C@H]3CCN(C(=O)CCCS(=O)(=O)c4cccc(Br)c4)C[C@H]3F)nc12 [VU6047606] | > 30 µM | 43% | 84.99% and > 82% | 5% | 93.78% and > 82% | 82.77% and > 82% | -2% | 72%
O=C(c1ccc(OCc2ccc(OC(F)(F)F)cc2)cc1)N1CCN(c2ccc(C(F)(F)F)cn2)CC1 [VU6032735] | > 30 µM | 9% | > 98% | 12% | > 98% | > 98% | -1% | 9%
